According to US20140005163A1 (NOVARTIS AG, priority 2010, published 2014):

Legend:
PI3K delta = target: T1, PI3K delta (Homo sapiens, UniProt O00329); experiment: PI3K delta kinase assay (Kinase-Glo luminescence); format: biochemical
T1 construct: for the full-length p110-d subunit are generated and fused by overlapping PCR; p85(iSH2) fusion partner (see partner chain) (N); His tag (C); made in house; host or cells: baculovirus; Tn5 (Trichoplusia ni) or TiniPro insect cells
Procedure, shortened: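 ATP depletion was measured by Kinase-Glo luminescence after a 60-minute room-temperature reaction containing 1 μM ATP, 10 μg/mL PI and 10 nM His-tagged p85(iSH2)-linker-p110δ (BV-1060). Buffer: Tris pH 7.5, 3 mM MgCl2, 50 mM NaCl, 0.05% CHAPS, 1 mM DTT. IC50 values came from four-parameter fits over eight concentrations.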

[1] = test system: S6 Ribosomal Protein phosphorylation Ser235/236 in TSC1 null mouse embryo fibroblast (MEF) cells; experiment: Reverse protein array assay, S6 Ribosomal Protein phosphorylation Ser235/236 in TSC1 null MEF cells; format: cell-based; conditions: 1 h, pS6 ribosomal protein Ser235/236, 60 minutes incubation, read-out: p-S6 IC50
Procedure, shortened: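 TSC1−/− MEFs, seeded and held ≥20 h at 37 °C/5% CO2, were exposed to 8-step serial compound dilutions (0.02% DMSO final; DMSO vehicle control) for 60 min at 37 °C. Cells were then lysed on ice for 10 min and lysates spotted onto reverse protein array chips.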

[2] = test system: PKB Ser473 phosphorylation in Rat1-myr-HA-p110 beta cells; experiment: Reverse protein array assay, PKB Ser473 phosphorylation in Rat1-myr-p110 beta cells; format: cell-based; conditions: 0.5 h, pAkt Ser473, 30 minutes incubation, read-out: p-PKB IC50
Procedure, shortened: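 After at least 20 h of culture, the p110 isoform-transfected Rat1 lines receive compound in an 8-step dilution series, keeping DMSO at 0.2%, for 30 minutes. Cells are then lysed and lysates arrayed on chips for fluorescence detection of Ser473-phosphorylated PKB.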

T1 sequence (O00329 with tags, fused parts or gaps limits assumed): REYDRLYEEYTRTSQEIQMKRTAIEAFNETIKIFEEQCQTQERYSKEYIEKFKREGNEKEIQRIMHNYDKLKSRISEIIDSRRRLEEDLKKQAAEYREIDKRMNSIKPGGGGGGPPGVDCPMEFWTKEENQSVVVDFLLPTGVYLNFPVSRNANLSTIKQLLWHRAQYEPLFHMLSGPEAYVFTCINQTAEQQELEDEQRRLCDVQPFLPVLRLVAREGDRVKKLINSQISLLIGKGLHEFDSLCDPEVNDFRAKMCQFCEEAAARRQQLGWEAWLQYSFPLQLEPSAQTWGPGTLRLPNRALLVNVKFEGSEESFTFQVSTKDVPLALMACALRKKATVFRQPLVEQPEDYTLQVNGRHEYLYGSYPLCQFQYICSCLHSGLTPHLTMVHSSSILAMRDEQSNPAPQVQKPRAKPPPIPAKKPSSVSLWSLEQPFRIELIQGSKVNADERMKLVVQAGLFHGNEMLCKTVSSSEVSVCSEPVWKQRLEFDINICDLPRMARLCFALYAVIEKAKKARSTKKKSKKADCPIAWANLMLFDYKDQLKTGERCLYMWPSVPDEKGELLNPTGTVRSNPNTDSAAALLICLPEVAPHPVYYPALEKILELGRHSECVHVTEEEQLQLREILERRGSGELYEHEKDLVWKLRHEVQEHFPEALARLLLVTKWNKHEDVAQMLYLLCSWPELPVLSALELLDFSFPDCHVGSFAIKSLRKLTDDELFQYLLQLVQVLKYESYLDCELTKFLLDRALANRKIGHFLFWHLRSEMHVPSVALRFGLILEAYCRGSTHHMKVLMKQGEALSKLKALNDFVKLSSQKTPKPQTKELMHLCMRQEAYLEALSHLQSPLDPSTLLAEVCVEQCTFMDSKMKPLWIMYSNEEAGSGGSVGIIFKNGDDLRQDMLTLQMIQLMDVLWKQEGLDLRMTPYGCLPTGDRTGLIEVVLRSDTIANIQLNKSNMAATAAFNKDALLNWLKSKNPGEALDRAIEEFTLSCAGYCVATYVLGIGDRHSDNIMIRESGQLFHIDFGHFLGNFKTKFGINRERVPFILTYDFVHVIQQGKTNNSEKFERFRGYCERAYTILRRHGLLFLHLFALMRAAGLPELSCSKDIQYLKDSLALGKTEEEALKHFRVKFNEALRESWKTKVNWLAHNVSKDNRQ

| SMILES | IC50 (PI3K delta) [nM] | IC50 [2] [nM] | IC50 [1] [nM] |
| --- | --- | --- | --- |
| COc1ncc(-c2ccc3ncc4c(c3c2)n(-c2cn(C)nc2C)c(=O)n4C)cc1C#N [Example 132, 5-[1-(1,3-Dimethyl-1H-pyrazol-4-yl)-3-methyl-2-oxo-2,3-dihydro-1H-imidazo[4,5-c]quinolin-8-yl]-2-methoxy-nicotinonitrile] | 58 | 99 | 3 |
| CNc1ncc(-c2ccc3ncc4c(c3c2)n(-c2c(C)nn(C)c2C)c(=O)n4C)cc1F [Example 141.1, 8-(5-Fluoro-6-methylamino-pyridin-3-yl)-3-methyl-1-(1,3,5-trimethyl-1H-pyrazol-4-yl)-1,3-dihydro-imidazo[4,5-c]quinolin-2-one] | 44 | 162 | 34 |
| CNc1ncc(-c2ccc3ncc4c(c3c2)n(-c2cn(C)nc2C)c(=O)n4C)cc1F [Example 141.2, 1-(1,3-Dimethyl-1H-pyrazol-4-yl)-8-(5-fluoro-6-methylamino-pyridin-3-yl)-3-methyl-1,3-dihydro-imidazo[4,5-c]quinolin-2-one] | 98 | < 5 | 1 |
| Cc1nn(C)c(C)c1-n1c(=O)n(C)c2cnc3ccc(-c4cnc(N)c(F)c4)cc3c21 [Example 142.1, 8-(6-Amino-5-fluoro-pyridin-3-yl)-3-methyl-1-(1,3,5-trimethyl-1H-pyrazol-4-yl)-1,3-dihydro-imidazo[4,5-c]quinolin-2-one] | 4 | 300 | 36 |
| CNc1ncc(-c2ccc3ncc4c(c3c2)n(-c2c(C)nn(C)c2C)c(=O)n4C)cc1Cl [Example 146.4, 8-(5-Chloro-6-methylamino-pyridin-3-yl)-3-methyl-1-(1,3,5-trimethyl-1H-pyrazol-4-yl)-1,3-dihydro-imidazo[4,5-c]quinolin-2-one] | 19 | 127 | 12 |
| CNc1ncc(-c2ccc3ncc4c(c3c2)n(-c2cc(C)nn2C)c(=O)n4C)cc1Cl [Example 146.5, 8-(5-Chloro-6-methylamino-pyridin-3-yl)-1-(2,5-dimethyl-2H-pyrazol-3-yl)-3-methyl-1,3-dihydro-imidazo[4,5-c]quinolin-2-one] | 3 | 29 | 2.66 |
| Cc1noc(C)c1-n1c(=O)n(C)c2cnc3ccc(-c4cnc(N)c(Cl)c4)cc3c21 [Example 148.4, 8-(6-Amino-5-chloro-pyridin-3-yl)-1-(3,5-dimethyl-isoxazol-4-yl)-3-methyl-1,3-dihydro-imidazo[4,5-c]quinolin-2-one] | 45 | 207 | 17.7 |
| CNc1cc(-c2ccc3ncc4c(c3c2)n(-c2cn(C)nc2C)c(=O)n4C)cnc1F [Example 150.2, 1-(1,3-Dimethyl-1H-pyrazol-4-yl)-8-(6-fluoro-5-methylamino-pyridin-3-yl)-3-methyl-1,3-dihydro-imidazo[4,5-c]quinolin-2-one] | 7 | 10 | 1 |
| CCNc1cc(-c2ccc3ncc4c(c3c2)n(-c2c(C)nn(C)c2C)c(=O)n4C)cnc1F [Example 154.1, 8-(5-Ethylamino-6-fluoro-pyridin-3-yl)-3-methyl-1-(1,3,5-trimethyl-1H-pyrazol-4-yl)-1,3-dihydro-imidazo[4,5-c]quinolin-2-one] | 37 | 104 | 3 |
| Cc1ncc(-c2ccc3ncc4c(c3c2)n(-c2cn(C)nc2C)c(=O)n4C)cc1N(C)C [Example 164, 8-(5-Dimethylamino-6-methyl-pyridin-3-yl)-1-(1,3-dimethyl-1H-pyrazol-4-yl)-3-methyl-1,3-dihydro-imidazo[4,5-c]quinolin-2-one] | 4 | < 5 | 1 |
| CCNc1ncc(-c2ccc3ncc4c(c3c2)n(-c2cn(C)nc2C)c(=O)n4C)cc1COCC [Example 167, 1-(1,3-Dimethyl-1H-pyrazol-4-yl)-8-(5-ethoxymethyl-6-ethylamino-pyridin-3-yl)-3-methyl-1,3-dihydro-imidazo[4,5-c]quinolin-2-one] | 25 | 72 | 7 |
| CCn1cc(-n2c(=O)n(C)c3cnc4ccc(-c5cnc(N)c(COC)c5)cc4c32)c(C)n1 [Example 168.2, 8-(6-Amino-5-methoxymethyl-pyridin-3-yl)-1-(1-ethyl-3-methyl-1H-pyrazol-4-yl)-3-methyl-1,3-dihydro-imidazo[4,5-c]quinolin-2-one] | 11 | 18 | < 0.5 |
| Cc1ncc(-c2ccc3ncc4c(c3c2)n(-c2cn(C)nc2C)c(=O)n4C)cc1O [Example 185.1, 1-(1,3-Dimethyl-1H-pyrazol-4-yl)-8-(5-hydroxy-6-methyl-pyridin-3-yl)-3-methyl-1,3-dihydro-imidazo[4,5-c]quinolin-2-one] | 9 | 46 | 35 |
| Cc1ncc(-c2ccc3ncc4c(c3c2)n(-c2cn(C)nc2C)c(=O)n4C)cc1OC(CF)CF [Example 189, 1-(1,3-Dimethyl-1H-pyrazol-4-yl)-8-[5-(2-fluoro-1-fluoromethyl-ethoxy)-6-methyl-pyridin-3-yl]-3-methyl-1,3-dihydro-imidazo[4,5-c]quinolin-2-one] | 6 | < 5 | 1 |
| Cc1nn(C)cc1-n1c(=O)n(C)c2cnc3ccc(-c4cnc(CO)c(OC(C)C)c4)cc3c21 [Example 190, 1-(1,3-Dimethyl-1H-pyrazol-4-yl)-8-(6-hydroxymethyl-5-isopropoxy-pyridin-3-yl)-3-methyl-1,3-dihydro-imidazo[4,5-c]quinolin-2-one] | 11 | 16 | 2 |
| COCc1ncc(-c2ccc3ncc4c(c3c2)n(-c2cn(C)nc2C)c(=O)n4C)cc1OC(C)C [Example 191.1, 1-(1,3-Dimethyl-1H-pyrazol-4-yl)-8-(5-isopropoxy-6-methoxymethyl-pyridin-3-yl)-3-methyl-1,3-dihydro-imidazo[4,5-c]quinolin-2-one] | 6 | 54 | 4 |

The next lines start with results.

| IC50 (PI3K delta) [nM] | IC50 [2] [nM] | SMILES | IC50 [1] [nM] |
| --- | --- | --- | --- |
| 17 | 160 | COc1cc(-c2ccc3ncc4c(c3c2)n(-c2cn(C)nc2C)c(=O)n4C)cnc1CO [Example 193, 1-(1,3-Dimethyl-1H-pyrazol-4-yl)-8-(6-hydroxymethyl-5-methoxy-pyridin-3-yl)-3-methyl-1,3-dihydro-imidazo[4,5-c]quinolin-2-one] | 5.53 |
| 14 | 114 | COCc1ncc(-c2ccc3ncc4c(c3c2)n(-c2cn(C)nc2C)c(=O)n4C)cc1OC [Example 195.1, 1-(1,3-Dimethyl-1H-pyrazol-4-yl)-8-(5-methoxy-6-methoxymethyl-pyridin-3-yl)-3-methyl-1,3-dihydro-imidazo[4,5-c]quinolin-2-one] | 5 |
| 35 | 189 | COCc1ncc(-c2ccc3ncc4c(c3c2)n(-c2cn(C(C)C)nc2C)c(=O)n4C)cc1OC [Example 195.2, 1-(1-Isopropyl-3-methyl-1H-pyrazol-4-yl)-8-(5-methoxy-6-methoxymethyl-pyridin-3-yl)-3-methyl-1,3-dihydro-imidazo[4,5-c]quinolin-2-one] | 31 |
| 34 | 184 | CCn1cc(-n2c(=O)n(C)c3cnc4ccc(-c5cnc(COC)c(OC)c5)cc4c32)c(C)n1 [Example 195.3, 1-(1-Ethyl-3-methyl-1H-pyrazol-4-yl)-8-(5-methoxy-6-methoxymethyl-pyridin-3-yl)-3-methyl-1,3-dihydro-imidazo[4,5-c]quinolin-2-one] | 31 |
| 5 | 26 | [2H]C([2H])([2H])OCc1ncc(-c2ccc3ncc4c(c3c2)n(-c2cn(C)nc2Cl)c(=O)n4C)cc1OC [Example 199, 1-(3-Chloro-1-methyl-1H-pyrazol-4-yl)-8-(5-methoxy-6-trideuteromethoxymethyl-pyridin-3-yl)-3-methyl-1,3-dihydro-imidazo[4,5-c]quinolin-2-one] | 2 |
| 6 | 29 | COCc1cc(-c2ccc3ncc4c(c3c2)n(-c2cn(C)nc2C)c(=O)n4C)cnc1OC [Example 202, 1-(1,3-Dimethyl-1H-pyrazol-4-yl)-8-(6-methoxy-5-methoxymethyl-pyridin-3-yl)-3-methyl-1,3-dihydro-imidazo[4,5-c]quinolin-2-one] | 1 |
| 9 | 22 | Cc1nn(C)cc1-n1c(=O)n(C)c2cnc3ccc(-c4cnc5c(c4)OCCN5C)cc3c21 [Example 209, 1-(1,3-Dimethyl-1H-pyrazol-4-yl)-3-methyl-8-(4-methyl-3,4-dihydro-2H-pyrido[3,2-b][1,4]oxazin-7-yl)-1,3-dihydro-imidazo[4,5-c]quinolin-2-one] | 2 |
| 11 | 113 | Cc1nn(C)cc1-n1c(=O)n(C)c2cnc3ccc(-c4cncc(C(C)(C)O)c4)cc3c21 [Example 215.2, 1-(1,3-Dimethyl-1H-pyrazol-4-yl)-8-[5-(1-hydroxy-1-methyl-ethyl)-pyridin-3-yl]-3-methyl-1,3-dihydro-imidazo[4,5-c]quinolin-2-one] | 3 |
